Here are results for six compounds from ChEMBL document CHEMBL1275296, “Synthesis and antimicrobial studies of thiazolotriazinones” (2010).

Values after ≈ are worked out from the molar mass of the structure shown. Active and inactive are the calls of the source. The calls are words filed in the database; no cut-off is given here.

The term MIC denotes the least concentration at which growth counts as inhibited. The low end stands for inhibition by little substance, the high end for a need for much substance.

Assay [1] deals with Aspergillus flavus. As to the kind of experiment: Antifungal activity against Aspergillus flavus by measuring inhibition zone after 48 hrs. The format is functional.
Assay [2] concerns Staphylococcus aureus. As to the kind of experiment: Antibacterial activity against Staphylococcus aureus after 24 hrs by broth dilution method. It counts as functional. On the technique in general: Broth dilution looks for growth in wells or tubes with falling amounts of substance.
In assay [3] the test system is Escherichia coli. Nature of the assay: Antibacterial activity against Escherichia coli after 24 hrs by broth dilution method. The format is functional.
Assay [4] relates to Aspergillus flavus. As to the kind of experiment: Antifungal activity against Aspergillus flavus after 48 hrs. The format is functional.
Assay [5] deals with Trichophyton mentagrophytes. As to the kind of experiment: Antifungal activity against Trichophyton mentagrophytes at >100 ug/mL after 48 hrs. The format is functional, organism-based.
Assay [6] relates to Talaromyces marneffei. Nature of the assay: Antifungal activity against Penicillium marneffei by measuring inhibition zone after 48 hrs. The format is functional.
Assay [7] concerns Talaromyces marneffei. As to the kind of experiment: Antifungal activity against Penicillium marneffei after 48 hrs. The format is functional.
For assay [8], the system named is Candida albicans. Nature of the assay: Antifungal activity against Candida albicans at >100 ug/mL after 48 hrs. It counts as functional, organism-based.
The subject of assay [9] is Aspergillus fumigatus. As to the kind of experiment: Antifungal activity against Aspergillus fumigatus at >100 ug/mL after 48 hrs. It counts as functional, organism-based.
In assay [10] the test system is Pseudomonas aeruginosa. Nature of the assay: Antibacterial activity against Pseudomonas aeruginosa after 24 hrs by broth dilution method. It counts as functional.
In assay [11] the test system is Streptococcus pyogenes. Nature of the assay: Antibacterial activity against Streptococcus pyogenes after 24 hrs by broth dilution method. The format is functional.
Assay [12] concerns Klebsiella pneumoniae. Nature of the assay: Antibacterial activity against Klebsiella pneumoniae at >100 ug/mL after 24 hrs by broth dilution method. It counts as functional, organism-based.
The test system of assay [13] is Staphylococcus aureus. As to the kind of experiment: Antibacterial activity against Staphylococcus aureus after 24 hrs. The format is functional.
The subject of assay [14] is Escherichia coli. Nature of the assay: Antibacterial activity against Escherichia coli after 24 hrs. The format is functional.
The subject of assay [15] is Pseudomonas aeruginosa. As to the kind of experiment: Antibacterial activity against Pseudomonas aeruginosa after 24 hrs. It counts as functional.
The subject of assay [16] is Streptococcus pyogenes. Nature of the assay: Antibacterial activity against Streptococcus pyogenes after 24 hrs. It counts as functional.
The test system of assay [17] is Aspergillus flavus. As to the kind of experiment: Antifungal activity against Aspergillus flavus at >100 ug/mL after 48 hrs. The format is functional, organism-based.
The test system of assay [18] is Trichophyton mentagrophytes. Nature of the assay: Antifungal activity against Trichophyton mentagrophytes by measuring inhibition zone after 48 hrs. It counts as functional.
Assay [19] has as its system Trichophyton mentagrophytes. Nature of the assay: Antifungal activity against Trichophyton mentagrophytes after 48 hrs. It counts as functional.
For assay [20], the system named is Candida albicans. Nature of the assay: Antifungal activity against Candida albicans by measuring inhibition zone after 48 hrs. The format is functional.
For assay [21], the system named is Candida albicans. Nature of the assay: Antifungal activity against Candida albicans after 48 hrs. The format is functional.
Assay [22] relates to Aspergillus fumigatus. Nature of the assay: Antifungal activity against Aspergillus fumigatus by measuring inhibition zone after 48 hrs. The format is functional.
The subject of assay [23] is Aspergillus fumigatus. As to the kind of experiment: Antifungal activity against Aspergillus fumigatus after 48 hrs. It counts as functional.
Assay [24] has as its system Talaromyces marneffei. Nature of the assay: Antifungal activity against Penicillium marneffei at >100 ug/mL after 48 hrs. The format is functional, organism-based.
Assay [25] has as its system Klebsiella pneumoniae. As to the kind of experiment: Antibacterial activity against Klebsiella pneumoniae after 24 hrs by broth dilution method. It counts as functional.
In assay [26] the test system is Klebsiella pneumoniae. As to the kind of experiment: Antibacterial activity against Klebsiella pneumoniae after 24 hrs. It counts as functional.

For `O=c1c(Cc2ccc(Cl)cc2Cl)nnc2scc(-c3ccc([N+](=O)[O-])cc3)n12`, the “inhibition zone (IZ)” value in assay [1] is 14 mm; in [6], 10 mm; in [13], 20 mm; in assay [14], 15 mm; in assay [15], 27 mm; in [16] it was 17 mm. Besides, the MIC in [2] amounted to 6.25 µg/mL (≈ 14.4 µM); in assay [3], 12.5 µg/mL (≈ 28.8 µM); in [4], 12.5 µg/mL (≈ 28.8 µM); in assay [7] it was 12.5 µg/mL (≈ 28.8 µM); in assay [10], 6.25 µg/mL (≈ 14.4 µM); in assay [11] it was 6.25 µg/mL (≈ 14.4 µM). The inhibition entry in assay [5], in assay [8], in assay [9] and in assay [12] was “inactive” each time.

In the case of `O=c1c(Cc2ccc(Cl)cc2)nnc2scc(-c3ccc([N+](=O)[O-])cc3)n12`, the MIC came out at 25 µg/mL (≈ 62.7 µM) in assay [2]; 6.25 µg/mL (≈ 15.7 µM) in [3]; 25 µg/mL (≈ 62.7 µM) in assay [19]; 6.25 µg/mL (≈ 15.7 µM) in assay [7]; 6.25 µg/mL (≈ 15.7 µM) in assay [21]; 6.25 µg/mL (≈ 15.7 µM) in assay [23]. The MIC in assay [10] and in assay [11] was 25 µg/mL (≈ 62.7 µM) throughout. Further, the inhibition result in assay [17] and in [12] was “inactive” each time. For the same compound, the “inhibition zone (IZ)” value in assay [18] was 7 mm; in assay [6] it was 21 mm; in assay [20], 18 mm; in assay [22] it was 15 mm; in assay [13], 9 mm; in assay [14], 25 mm. Moreover, the results for the “inhibition zone (IZ)” value in assay [15] and in [16] were 8 mm and 9 mm, respectively.

`O=c1c(Cc2ccc(Cl)cc2)nnc2scc(-c3ccc(Br)cc3)n12`: the MIC came to 6.25 µg/mL (≈ 14.4 µM) in assay [2]; 25 µg/mL (≈ 57.8 µM) in assay [3]; 12.5 µg/mL (≈ 28.9 µM) in assay [19]; 6.25 µg/mL (≈ 14.4 µM) in assay [21]; 25 µg/mL (≈ 57.8 µM) in assay [23]; 12.5 µg/mL (≈ 28.9 µM) in assay [10]. Also, the minimal inhibitory concentration (MIC) in assay [25] and in [11] was 6.25 µg/mL (≈ 14.4 µM) each time. Also, the inhibition entry in assay [17] and in assay [24] was “inactive” in each case. The “inhibition zone (IZ)” value in [18] is on record as 12 mm; in [20], 17 mm; in assay [22], 8 mm; in [13], 23 mm; in assay [14] it was 9 mm; in [15] it was 14 mm. The entries for the “inhibition zone (IZ)” value in [26] and in assay [16] were 19 mm and 21 mm, respectively.

Take `O=c1c(Cc2ccc(Cl)cc2)nnc2scc(-c3ccc(Cl)cc3)n12`: the “inhibition zone (IZ)” value in assay [1] was 22 mm; in assay [18] it was 25 mm; in [6] it was 22 mm; in assay [20], 20 mm; in assay [22] it was 22 mm; in [13], 23 mm. The “inhibition zone (IZ)” value in [14] turned out to be 26 mm; in [15], 33 mm; in assay [26] it was 20 mm; in assay [16], 23 mm. For the same compound, the MIC in [2], in assay [3], in assay [4], in [19], in [7] and in [21] was 6.25 µg/mL (≈ 16.1 µM) throughout. Besides, the MIC in assay [23], in assay [10], in assay [25] and in assay [11] was 6.25 µg/mL (≈ 16.1 µM) throughout.

For `O=c1c(Cc2ccc(Cl)cc2Cl)nnc2scc(-c3cc(F)c(Cl)cc3Cl)n12`, the “inhibition zone (IZ)” value in assay [1] was found to be 21 mm; in assay [18], 22 mm; in [6], 25 mm; in assay [20], 20 mm; in assay [22] it was 24 mm; in [13] it was 21 mm. The “inhibition zone (IZ)” value in [14] was determined as 29 mm; in assay [15], 31 mm; in assay [26] it was 19 mm; in [16], 24 mm. In addition, the MIC in assay [2], in assay [3], in assay [4], in assay [19], in assay [7] and in assay [21] was 6.25 µg/mL (≈ 13.2 µM) in each case. Besides, the MIC in assay [23], in assay [10], in assay [25] and in assay [11] was 6.25 µg/mL (≈ 13.2 µM) throughout.

As for `O=c1c(Cc2ccc(Cl)cc2Cl)nnc2scc(-c3ccc(Cl)cc3)n12`, the “inhibition zone (IZ)” value in [1] was determined as 21 mm; in assay [18], 21 mm; in assay [6] it was 23 mm; in assay [20], 18 mm; in assay [22], 24 mm; in assay [13] it was 21 mm. For the same compound, the “inhibition zone (IZ)” value in assay [14] worked out at 29 mm; in assay [15], 32 mm; in assay [26], 19 mm; in assay [16] it was 23 mm. Moreover, the MIC in [2], in assay [3], in [4], in [19], in [7] and in [21] was 6.25 µg/mL (≈ 14.8 µM) each time. Besides, the MIC in assay [23], in assay [10], in assay [25] and in assay [11] was 6.25 µg/mL (≈ 14.8 µM) each time.
